Columns and labels:
Pol II pausing [1] = test: total Pol II ChIP-seq upon auxin, JQ1, dBET6 or NVP-2 treatment; format: cell-based, human; settings: BRD4-IAA7 cells; for Pol II pausing (Pol II occupancy profile): auxin 500 uM, JQ1 1 uM, dBET6 250 nM, 3 h; for gene-by-gene log 2PRR correlation with auxin treatment: scatter plot
Description: FIG. 1A illustrates the updated BRD4-IAA7 degron line. The F-box protein AtAFB2 was integrated into the C terminus of the BRD4 locus under the control of an independent promoter. […] These treatment concentrations/durations are relevant to all of FIG. 1. […] The gene list (N=6481) in this analysis is used throughout the study (except for FIGS. 3H-J). FIG. 1D illustrates the estimated Cumulative Density Function (ECDF) of pause release ratios (PRR, reported as log 2 fold change) for auxin treatment vs untreated control. The PRR is the ratio of Pol II occupancy within gene bodies to its occupancy at promoters. A leftward shift of the curve indicates an increase in the frequency and/or duration of promoter-proximal pausing, while a rightward shift indicates reduced pausing and/or more efficient release into gene bodies.
FIGS. 8A-8E. collectively illustrate the differences in Pol II pausing induced by BRD4 depletion and bromodomain inhibition, related to FIG. 1. FIG. 8A illustrates the western blot showing the expression of HA-tagged AtAFB2 and the auxin-induced degradation of V5-tagged BRD4 using anti-tag antibodies. FIG. 8B illustrates the western blot comparing the BRD4 protein expression level and degradation kinetics of the previously published BRD4-AID degron to those of the BRD4-IAA7 degron used in this study 12. Note: in FIGS. 8A and 8B, the BRD4-IAA7 clone used is D4 (Hygromycin selected); it is G3 (Neomycin selected) otherwise in the study. […] FIG. 8E illustrates the track examples of Pol II ChIP-seq signal at the HSPA8 and GAPDH loci upon NVP-2 treatment (2 h) and corresponding heatmaps showing Pol II occupancy profiles and fold change in occupancy vs control upon NVP-2 treatment.
To specifically deplete BRD4 without affecting other BET proteins, we generated an updated BRD4 degron line by modifying the published miniIAA7 degron system (hereafter BRD4-IAA7) to reduce basal degradation seen with AID degron-tagged BRD4^30 (FIGS. 1A and 8A).
DLD1 cells were crosslinked with 15 ml 1% PFA (ThermoFisher, #28908) in PBS on 15 cm plates for 10 minutes at RT and quenched by the addition of 2 ml 2.5M glycine followed by shaking for 5 minutes. Crosslinked cells were collected by scraping. Chromatin sonication was performed for 10 minutes using a Covaris E200 set to 10% duty factor, 200 cycles per burst, and 140 peak intensity power. For endogenous protein ChIP, 10-20% of mouse embryonic fibroblasts (MEF) chromatin (prepared the same way as in DLD1 cells) was added to each sample as a spike-in control. For overexpressed protein ChIP, such as GFP-ChIP, 20 ng spike-in chromatin (Active Motif, #53083) and 2 ug spike-in antibody (Active Motif, #61686) were added to each sample. Immunoprecipitation was carried out at 4° C. overnight using 5ul of Rpb1 (Cell Signaling Technology, #D8L4Y), 5ul of Ser2p (Active Motif, #61984), 10ul of CCNT1 (Cell Signaling Technology, #81464), 10ul of CDK9 (Santa Cruz Biotechnology, #sc-13130 X) antibodies, or 200ul of a cocktail consisting of 50ul of each GFP antibody (DSHB, #GFP-G1, #GFP-12A6, #GFP-12E6, #GFP-8H11). Immune complexes were enriched with Protein G-coupled Dynabeads (Invitrogen, #10004D) at 4° C. for >=4 h, and incubated with proteinase K (Roche, #3115828001) to reverse crosslink at 65° C. overnight. Eluted DNA was purified with the QIAquick PCR Purification Kit (Qiagen, #28106), and libraries were prepared using the KAPA HTP library preparation kit (Roche, #07961901001) for sequencing on the NovaSeq 6000.
Reads were aligned to hg38 with bowtie 1/250. Genes (N=6,481) with pausing site and TES annotation were obtained from a previously published study51. Promoter regions were designated as spanning from 100 bp upstream to 300 bp downstream of the pausing site. Gene body regions were designated as spanning from 300 bp downstream of the pausing site to the TES. FeatureCounts 2.0.152 was used to calculate the total mapped reads from Pol II ChIP-seq at promoters and within gene bodies. […]

CCNT1 = CCNT1 ChIP-seq with increasing concentrations of JQ1; format: cell-based, human; settings: BRD4-IAA7 cells; series concentration of JQ1, 3 h
Experimental: (§1) FIGS. 5A-5J collectively illustrate the identification of a distinct BRD4-PTEFb population, which is active but not histone acetylation-bound. FIG. 5A illustrates the track examples for AID ChIP-seq in the BRD4-AID line and CCNT1 ChIP-seq in the BRD4-IAA7 line with/without auxin treatment (3 h). H3K27ac ChIP-seq signal in the BRD4-AID line is shown for comparison. FIG. 5B illustrates the heatmap showing the genome-wide BRD4 and CCNT1 occupancy profile and the corresponding fold change upon auxin treatment for the conditions in A. Genes ranked by BRD4 signal in control. FIG. 5C illustrates the scatter plot showing the relative promoter density of CCNT1 vs BRD4, calculated by the log 2RPKM of the ChIP-seq signals at the regions flanking (±1 Kb) the Pol II pausing sites. FIG. 5D illustrates the track examples for GFP ChIP-seq signal upon induction of GFP-tagged BRD4-FL or the indicated mutants (left). Heatmap showing the genome-wide fold changes of the GFP-tagged BRD4 mutants relative to the vector (right). The endogenous BRD4 was depleted by auxin treatment (3 h) in all samples. Genes are ranked by GFP signal in the GFP-BRD4-FL condition. FIG. 5E illustrates the track examples for CCNT1 ChIP-seq signal upon endogenous BRD4 depletion and rescue with indicated GFP-tagged mutants (left). Heatmap showing the genome-wide CCNT1 fold changes (right). […]

Ser2P = Ser2P ChIP-seq upon JQ1 or dBET6 treatment; format: cell-based, human; settings: BRD4-IAA7 cells; series concentration of JQ1 or 250 nM dBET6, 3 h
Experimental: as §1

Pol II pausing [2] = settings: reference 21; cited from earlier work
BRDT = molecular target: T1, BRDT (Homo sapiens, UniProt Q58F21); test: Western blot of dBET6 treatment in NCIH2009 cells (BRDT); format: cell-based; settings: dBET6 3 h
T1 construct: endogenous in cells; host or cells: NCIH2009
Description: FLAG antibody (#F1804) was obtained from Millipore Sigma. […] H3 antibody was generated in-house.

| SMILES | effect on pausing at super enhancer-controlled genes such as Myc (Pol II pausing [1]; MYC locus) | Pol II pausing (Pol II occupancy profile) (Pol II pausing [1]) | gene-by-gene log 2PRR correlation with auxin treatment (Pol II pausing [1]) | CCNT1 ChIP-seq signals (CCNT1) | Ser2P ChIP-seq signals (Ser2P) | effect on Pol II pausing (RNA-seq, NET-seq) (Pol II pausing [2]) | degradation of endogenous BRDT (BRDT) |
| --- | --- | --- | --- | --- | --- | --- | --- |
| Cc1sc2c(c1C)C(c1ccc(Cl)cc1)=N[C@@H](CC(=O)OC(C)(C)C)c1nnc(C)n1-2 [JQ1] | notable | induced little to no pausing | poorly correlated | decreased dramatically with increasing concentrations | minimal | only a modest effect on Pol II pausing | – |
| Cc1sc2c(c1C)C(c1ccc(Cl)cc1)=N[C@@H](CC(=O)NCCCCCCCCNC(=O)COc1cccc3c1C(=O)N(C1CCC(=O)NC1=O)C3=O)c1nnc(C)n1-2 (some centres unmarked) [dBET6] | – | inducing pausing at the majority of Pol II-transcribed genes | much stronger | – | Ser2P signal fade away | dramatic, genome-wide increase in paused Pol II at promoters | degraded |
